Laboratory results taken from patent US12678451B2, “Cannabinoid and omega fatty acid compositions and methods of using” (GreenWay Herbal Products, LLC, priority 2019, dated 2026).
Read-outs that look alike come from different tables or passages of the source.

Columns and labels:
DPPH antioxidant assay = format: biochemical; conditions: 100 μM
Description: The ability of the cannabinoids to act as potential antioxidants was assessed using the 2,2-diphenyl-1-picrylhydrazyl (DPPH) antioxidant assay. The cannabinoids CBDA, CBD, CBDVA, CBDV, CBG, THCV, and the 1:1 CBD:CBDA mixture had the highest antioxidant activities with radical scavenging activities of 38.19%, 48.00%, 43.81%, 44.21%, 44.28%, 45.71%, and 43.74%, respectively.
The 2,2-diphenyl-1-picrylhydrazyl (DPPH) free radical (Alfa Aesar) was prepared at 0.1 mM in ethanol. The cannabinoids were tested at a final concentration of 100 uM. 2 uL of 7.5 mM stock solutions of the cannabinoids to be tested in DMSO were added to 148 uL of 0.1 mM DPPH to achieve a final concentration of 100 μM in the assay. Ascorbic acid (Thermo Scientific) at a final concentration of 10 mg/ml was used as a positive control. The reaction mixture was incubated in the dark at room temperature for 1 hour, the absorbance of the mixture was read at 517 nm using a Spectra Max 5M microplate reader (Molecular Devices, LLC, Sunnyvale, Calif., USA) and the absorbance was converted to percent radical scavenging activity (% RSA) using the following formula: % RSA=[(Absorbance of the control−Absorbance of the sample)/(Absorbance of the control)]×100.
Free radical production occurs when the immune system is activated and antioxidants represent potential effective treatments for inflammatory conditions and autoimmune diseases. […] The DPPH antioxidant assay can be used to measure the ability of a compound to scavenge free radicals by measuring the ability of compounds to hydrogenate and reduce DPPH. The DPPH assay was conducted on CBCA, CBDA, CBDVA, CBGA, CBLA, CBNA, THCVA, and their decarboxylated derivatives as well as the 1:1 CBD:CBDA mixture.

[1] = tested on: cytokine levels in differentiated THP-1 cells treated with LPS; assay: THP-1 human cellular LPS cytokine assay, four independent experiments, per cytokine; format: cell-based; conditions: 2 µM; LPS 20 ng/mL
[2] = tested on: cytokines induced in mice by LPS; assay: Mouse LPS cytokine animal model (Example 3), cannabinoids in PB with 5% DMSO; format: in vivo; conditions: 5 mg/kg
Description: This experiment was conducted to compare the ability of CBD, CBDA or the 1:1 equimolar mixture of CBD:CBDA to suppress the induction of cytokines whose expression levels were induced in mice by LPS.
The ability of agents to suppress the immune system can be tested in vivo using an LPS mouse model, in which mice are injected with LPS to cause an immune response (Field et al., 1970; Ghezzi P and Sipe J D, 1988).
Four 20 g female C57BL/6 mice were used per group. The experimental mice were first injected with 0.1 mL of the cannabinoids prepared at 1 mg/mL in phosphate buffer (PB) with 5% DMSO to yield a final dose of 5 mg/kg, followed one hour later by the injection of 0.1 mL of 0.02 mg/mL LPS in PB to yield a final dose of 0.1 mg/kg. Mice injected with 0.1 mL of PB with 5% DMSO and 0.1 mL of PBS served as a non-induced control and mice injected with 0.1 mL of PB with 5% DMSO and 0.1 mL of 0.02 mg/mL LPS in PB served as a LPS untreated control. After allowing two hours for the immune system to be induced by LPS, the mice were then euthanized, heart punctures performed to extract the blood, which was allowed to coagulate on ice for 1 hour before centrifuging to isolate the serum. The levels of 32 of the most common mouse cytokines (Eve Technologies, Calgary, Canada, Table 9) were determined by multi-plex analysis.

[3] = tested on: differentiated U-937 cells; assay: Human cellular U-937 autophagy induction assay (anti-LC3); format: cell-based; conditions: 1.0 μM, 12 hours
Description: The induction of autophagy was monitored using anti-LC3 antibodies to detect LC3 on the autophagosome in human U-937 pro-monocytic histiocytic lymphoma cells (ATCC, Manassas, Va., USA), which generate morphologies characteristic of macrophages upon induction by various stimuli. U-937 cells were cultured in RPMI-1640 medium with L-glutamine and sodium bicarbonate (Sigma-Aldrich, St Louis, Mo.) supplemented with 10% fetal bovine serum (FBS) and 1% penicillin in 25 cm2 tissue flasks at 37° C. in a 5% CO2 humidified atmosphere and passaged every 2-3 days. U-937 cells were seeded in 96 well plates at 5×10^5 cells/mL and stimulated with 100 ng/mL PMA to induce differentiation for 24 hours. The cells were then treated with the various cannabinoids at 1.0 μM concentrations for 12 hours. 30 μM chloroquine was used as a positive control. After treatment, the cells were fixed using 3.7% formaldehyde in PBS for 15 minutes at room temperature and washed with PBS to remove the fixative. Permeabilization reagent (0.2% Triton X-100 in PBS) (Sigma-Aldrich) was added, the cells were incubated for 15 minutes at room temperature and then the cells were washed with PBS to remove the permeabilization reagent. LC3B rabbit polyclonal antibody (Invitrogen) was added at a final concentration of 0.5 μg/ml for 1 hour at room temperature and the cells were washed with PBS remove the primary antibody. Secondary conjugated goat anti-rabbit polyclonal antibody (Thermo Scientific) was then added at a final concentration of 2.0 μg/ml for 1 hour at room temperature. The cells were washed, Hoechst dye was added to stain the nucleus and the cells were imaged using an Arrayscan VTI high-content screening (HCS) reader (Thermo Scientific) with the appropriate filters and the data was analyzed using the vHCS Scan software.
Chloroquine at a concentration of 30 μM was included as a positive control. The ability to induce autophagy was determined as a percentage with respect to the untreated control.

[4] = doses up to 100 mg in mice; cited from earlier work
[5] = doses up to 600 mg in humans; cited from earlier work
[6] = tested on: animal or human cells grown via tissue culture; conditions: cited from earlier work
[7] = tested on: cytokine levels in differentiated THP-1 cells treated with LPS; assay: THP-1 human cellular LPS cytokine assay, three independent experiments, total averaged suppression
Description: Cells were seeded onto 24-, or 12-well plates and incubated for 48 hours to 72 hours to allow for differentiation. […] Supernatants were collected for quantification of human cytokine levels to assess the cytokine response. Cells remaining after the supernatant collection were tested to ensure they had at least 90% viability as determined by Alamar Blue assays. To conduct the Alamar Blue assays, supernatants were replaced with culture medium containing 1× Alamar Blue reagent and incubated overnight. Cell viability was assessed by measuring relative fluorescent units (RFU) on the SpectraMax M2e microplate reader (Molecular Devices Inc., Sunnyvale, Calif., USA) at Excitation 560 nm and Emission 590 nm. Controls included untreated cells with DMSO at the same concentration as the treated cells, LPS stimulated cells with DMSO at the same concentration as the treated cells and LPS stimulated cell with the various treatments. The levels of 42 of the most common human cytokines (Eve Technologies, Calgary, Canada Table 6) were determined by multi-plex analysis.
For this reason, the level of cytokine suppression was determined for each cytokine by each cannabinoid that was tested and the total averaged suppression for each cannabinoid was determined by dividing the total suppression by the number of the cytokines that were analyzed.

C=C(C)[C@@H]1CCC(C)=C[C@H]1c1c(O)cc(CCCCC)cc1O [CBD, 2-[(1R,6R)-6-Isopropenyl-3-methyl-2-cyclohexen-1-yl]-5-pentyl-1,3-benzenediol]
radical scavenging activity compared to the untreated control (DPPH antioxidant assay): at least two-fold | % RSA (radical scavenging activity) (DPPH antioxidant assay; 1 hour): 48.00% | Average cytokine suppression [1]: 39.62% | EGF suppression [1]: −5.61% | FGF-β suppression [1]: 41.85% | Flt-3L suppression [1]: 60.02% | G-CSF suppression [1]: 51.32% | GM-CSF suppression [1]: 45.16% | IFNγ suppression [1]: 13.71% | IL-1α suppression [1]: 55.14% | IL-1β suppression [1]: 71.06% | IL-4 suppression [1]: 14.63% | IL-6 suppression [1]: 66.26% | IL-7 suppression [1]: 18.2% | IL-10 suppression [1]: 32.42% | IL-12 p70 suppression [1]: −31.17% | IL-15 suppression [1]: 62.30% | IL-18 suppression [1]: 56.90% | IP-10 suppression [1]: 67.08% | MCP-1 suppression [1]: 43.90% | MIP-1β suppression [1]: 31.85% | TNFα suppression [1]: 29.05% | TNFβ suppression [1]: 68.24% | Average cytokine suppression [2]: 12.86% | GM-CSF suppression [2]: 34.53% | IFNγ suppression [2]: −0.19% | IL-1β suppression [2]: 10.58% | IL-2 suppression [2]: −0.09% | IL-6 suppression [2]: 4.49% | IL-12β p40 suppression [2]: 34.89% | IL-13 suppression [2]: 6.38% | IL-17 suppression [2]: 7.51% | IP-10 suppression [2]: 1.72% | KC suppression [2]: 7.85% | LIF suppression [2]: 25.24% | M-CSF suppression [2]: 7.70% | MIP-1α suppression [2]: 6.69% | MIP-1β suppression [2]: −0.77% | MIP-2 suppression [2]: 34.56% | TNF-α suppression [2]: 24.74% | Fluorescence (LC3) [3]: 45.43 | activation at 1 µM ([3]; Homo sapiens, U-937, read-out: Induction of autophagy with respect to the untreated control): -5.84% | adverse side effects [4]: no adverse side effects | adverse side effects [5]: no adverse side effects | dose that can cause significant cytotoxicity [6]: less than 5 μM | effectiveness at reducing elevated cytokine levels relative to dexamethasone [7]: at least half as effective as dexamethasone | inhibition at 2 µM ([7]; Homo sapiens, THP-1, 4 h, read-out: % Cytokine Suppression (total averaged)): 33.1%
